Assay results reported in PMC7925909, “The Multi-Level Mechanism of Action of a Pan-Ras Inhibitor Explains its Antiproliferative Activity on Cetuximab-Resistant Cancer Cells” (Frontiers in Molecular Biosciences, 2021).

How the values were obtained:
[1] = biological target: T1, HRas (Homo sapiens, UniProt P01112); assay: STD-NMR and native MS of the HRas-GDP-cmp4 ternary complex; the EC50 is from SPR inhibition of RasGRF1 binding to HRas-GDP; mant-nucleotide dissociation/exchange also inhibited
T1 construct: N-terminal His-tagged, residues 1-166
T1 sequence (P01112 1-166): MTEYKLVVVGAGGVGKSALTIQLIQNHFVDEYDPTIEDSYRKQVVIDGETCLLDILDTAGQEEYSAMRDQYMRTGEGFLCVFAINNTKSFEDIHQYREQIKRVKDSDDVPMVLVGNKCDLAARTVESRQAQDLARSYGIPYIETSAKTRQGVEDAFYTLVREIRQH

[2] = biological target: T2, HRas^G13D (Homo sapiens, UniProt P01112, G13D); assay: STD-NMR on HRas G13D-GDP; dose-dependent inhibition of intrinsic and GEF-mediated mant-nucleotide dissociation/exchange; assay type: binding
T2 construct: N-terminal His-tagged, residues 1-166
T2 sequence (P01112 1-166 G13D): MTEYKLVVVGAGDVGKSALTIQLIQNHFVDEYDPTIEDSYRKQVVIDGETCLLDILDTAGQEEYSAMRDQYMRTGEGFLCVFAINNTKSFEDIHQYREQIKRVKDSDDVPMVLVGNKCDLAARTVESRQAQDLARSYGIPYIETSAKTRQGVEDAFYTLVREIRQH

EC50 [1]: ~170 µM
Structure (SMILES): OC[C@H]1O[C@@H](O[C@H]2[C@H](O)[C@@H](O)[C@H](N(Cc3ccc(O)c(O)c3)OCc3ccccc3)O[C@@H]2CO)[C@H](O)[C@@H](O)[C@H]1O [cmp4]
STD-NMR on HRas G13D-GDP; dose-dependent inhibition of intrinsic and GEF-mediate [2]: STD analysis on HRas^G13D mutant protein saturated with cmp4 shows that cmp4 also interacts with the mutant protein
